The values below come from patent US20190134115A1, “Activated Lactobacillus Reuteri Strains for Selective Pathogen Inhibition in a Human Microbial Community” (BioGaia AB, priority 2016, published 2019).

Test [1] deals with L. rhamnosus LR-34. Description: Antibiotic susceptibility testing, broth microdilution MIC. The class given is cell-based. To be noted: for MIC: Lacticaseibacillus rhamnosus; for MIC / Minimum inhibitory concentration: MRS, anaerobic, 24 h, ≥90% reduction in growth. The protocol:
(§1) Antibiotic Susceptibility Testing. Susceptibility of Lactobacillus spp. to antibiotics was determined using standard broth microdilution procedures (24). […] Plates were incubated anaerobically at 37° C. for 24 h. Optical density measurements (600 nm) were recorded using a Synergy™ H1 Hybrid Multi-Mode Microplate Reader (BioTek Instruments, Inc, Winooski, Vt.). […] Significance was determined using student's t test with equal variance.
Background: Dilution methods test growth across graded concentrations, often in twofold steps.

Test [2] relates to L. casei LC-39. Described as above. To be noted: for MIC: Lacticaseibacillus casei; for MIC / Minimum inhibitory concentration: MRS, anaerobic, 24 h, ≥90% reduction in growth. The class given is cell-based. How it is done: as §1
For test [3], the system named is L. gasseri LG-3. The test is described as above. To be noted: for MIC: Lactobacillus gasseri, read-out: Minimum inhibitory concentration. The class given is cell-based. How it is done:
(§2) Antibiotic Susceptibility Testing. Susceptibility of Lactobacillus spp. to antibiotics was determined using standard broth microdilution procedures (24). […] Plates were incubated anaerobically at 37° C. for 24 h. Optical density measurements (600 nm) were recorded using a Synergy™ H1 Hybrid Multi-Mode Microplate Reader (BioTek Instruments, Inc, Winooski, Vt.). Results were compared to a growth control (lactobacilli only), and the minimum inhibitory concentration (MIC) endpoint was the concentration of antibiotic where ≥90% reduction in growth was observed. Significance was determined using student's t test with equal variance.

Test [4] has as its system L. reuteri 17938. Described as above. The class given is cell-based. To be noted: read-out: Minimum inhibitory concentration. The protocol: as §2
Test [5] has as its system L. reuteri 6475. The description is as above. The settings on record: read-out: Minimum inhibitory concentration. The class given is cell-based. How it is done: as §2
Test [6] relates to C. difficile R20291. The settings on record: C. difficile R20291, CDI patient stool; cited from earlier work.
Test [7] relates to C. difficile-associated diarrheal isolates. The settings on record: cited from earlier work.
The subject of test [8] is C. difficile CD2015. Description: C. difficile invasion of antibiotic-treated human fecal mini-bioreactor arrays (MBRA), qPCR. It is filed as cell-based. The settings on record: clindamycin-treated MBRA, increase not statistically significant. How it is done:
Mini-bioreactor array (MBRA) preparation, operation and sample collection. Effects of reuterin on C. difficile growth in a human fecal microbial community were tested in MBRAs. Replicate MBRAs (twelve independent 15-mL reactors) and bioreactor medium (BRM2) were prepared as previously described (26). Reactors were inoculated with an anaerobic preparation of a 25% fecal slurry from an anonymous healthy donor (5% w/v final concentration) and were operated in an anaerobic chamber with 5% H2, 5% CO2, 90% N2 atmosphere. After 16 h of outgrowth in batch culture mode, continuous-flow cultivation was initiated at a flow rate of 0.94 ml/h (16 h retention time). After 36 h of flow, reactor communities were treated twice daily with clindamycin (500 mg/L final concentration) for 4.5 days. Reactors were transitioned to fresh medium on day 4 of clindamycin treatment, with 6 reactors receiving standard BRM2 medium and 6 reactors receiving BRM2 supplemented with glycerol (10% v/v final concentration). […]
Samples (1 ml) were collected from each MBRA as described (27) prior to the initiation of continuous flow and then daily through the duration of the experiment. […] Microbial community and metabolite analysis, and quantification of C. difficile levels by quantitative PCR (qPCR) were performed as described below. […]
Quantification of C. difficile by qPCR. […]

Where [9] appears, read: LR34, L. rhamnosus LR-34, read-out: Minimum inhibitory concentration.
[10] abbreviates: LC39, L. casei LC-39, read-out: Minimum inhibitory concentration.
[11] abbreviates: LG3, L. gasseri LG-3, MRS, anaerobic, 24 h, ≥90% reduction in growth.
Setting [12] is: Limosilactobacillus reuteri, L. reuteri 17938, MRS, anaerobic, 24 h, ≥90% reduction in growth.
[13] abbreviates: Limosilactobacillus reuteri, 6475, 24 h.

The structures appear in SMILES notation. Converted amounts (≈) assume the structure as drawn. Like-named read-outs stand apart in the source and are kept apart here. Some results are limits rather than exact numbers.

Broadly, the MIC90 is the lowest concentration that inhibits either 90% of growth or 90% of the strains tested, depending on the study. Regarding `CCc1c(Cl)c(O)c(Cl)c(O)c1C(=O)O[C@H]1[C@H](O)[C@H](OC)[C@H](OC/C2=C\C=C\C[C@H](O)/C(C)=C/[C@H](CC)[C@@H](O[C@@H]3OC(C)(C)[C@@H](OC(=O)C(C)C)[C@H](O)[C@@H]3O)/C(C)=C/C(C)=C/C[C@@H]([C@@H](C)O)OC2=O)O[C@@H]1C` [Fidaxomycin, fidaxomicin], the “MIC relative to the MIC90 for C. difficile” value in test [1] (L. rhamnosus LR-34, fold greater) is 4 fold; in test [2] (L. casei LC-39, fold greater), 4 fold. The MIC in test [1] (setting [9]) is 2 µg/mL; in test [2] (setting [10]), 2 µg/mL; in test [3] (setting [11]) it was 2 µg/mL; in test [4] (setting [12]), above 32 µg/mL; in test [5] (Limosilactobacillus reuteri, L. reuteri 6475, MRS, anaerobic, 24 h, ≥90% reduction in growth), above 32 µg/mL. Also, the Minimum inhibitory concentration in test [6] was 0.5 µg/mL (≈ 0.473 µM). The MIC90 in test [7] is 0.5 µg/mL (≈ 0.473 µM).

Turning to `Cc1ncc([N+](=O)[O-])n1CCO` [Metronidazole, metronidazole], the Minimum inhibitory concentration in test [1] (L. rhamnosus LR-34) was above 256 µg/mL; in test [2] (L. casei LC-39), above 256 µg/mL; in test [3] (L. gasseri LG-3, MRS, anaerobic, 24 h, ≥90% reduction in growth) it was above 256 µg/mL; in test [6], 2 µg/mL (≈ 11.7 µM). Besides, the MIC is above 256 µg/mL in test [1] (setting [9]); above 256 µg/mL in test [2] (setting [10]); above 256 µg/mL in test [3] (setting [11]); above 256 µg/mL in test [4] (setting [12]); 128 µg/mL in test [5] (setting [13]). Also, the MIC90 in test [7] was 2 µg/mL (≈ 11.7 µM).

`CN[C@H](CC(C)C)C(=O)N[C@H]1C(=O)N[C@@H](CC(N)=O)C(=O)N[C@H]2C(=O)N[C@H]3C(=O)N[C@H](C(=O)N[C@H](C(=O)O)c4cc(O)cc(O)c4-c4cc3ccc4O)[C@H](O)c3ccc(c(Cl)c3)Oc3cc2cc(c3O[C@@H]2O[C@H](CO)[C@@H](O)[C@H](O)[C@H]2O[C@H]2C[C@](C)(N)[C@H](O)[C@H](C)O2)Oc2ccc(cc2Cl)[C@H]1O` [Vancomycin, vancomycin]: the Minimum inhibitory concentration is 256 µg/mL in test [1] (L. rhamnosus LR-34), 256 µg/mL in test [2] (L. casei LC-39) and 4 µg/mL (≈ 2.76 µM) in test [6]. Also, the MIC in test [1] (LR34, 24 h, read-out: Minimum inhibitory concentration, L. rhamnosus LR-34) was above 256 µg/mL; in test [2] (LC39, 24 h, read-out: Minimum inhibitory concentration, L. casei LC-39), above 256 µg/mL; in test [3] (LG3, 24 h) it was 1 µg/mL; in test [4] (Limosilactobacillus reuteri, 17938, 24 h), 256 µg/mL; in test [5] (setting [13]), 256 µg/mL. In addition, in test [7], the MIC90 is 4 µg/mL (≈ 2.76 µM).

In the case of `OCC(O)CO` [glycerol], in test [8], the “C. difficile concentrations, fold greater than controls” value is listed as around 10 fold.
